# Measurements reported in patent US20230159510A1, “NOVEL PRMT5 INHIBITORS” (AMGEN INC., priority 2020, published 2023).
# Like-named read-outs stand apart in the source and are kept apart here.
# Experiments:
# [1] = test system: HCT116 MTAP null cells; assay: HCT116 proliferation assay, MTAP null cells (CellTiter-Glo, 6 days); type: cell-based; conditions: read-out: Protif_ HCT116-MTAP null IC50
# How it was run: (§1)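 Both lines grow in RPMI 1640 containing 10% fetal bovine serum. After an overnight rest, they receive compound at up to 1 or 10 µM in threefold serial dilutions, with vehicle wells holding DMSO only.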
# [2] = test system: HCT116 WT cells; assay: HCT116 proliferation assay, WT cells (CellTiter-Glo, 6 days); type: cell-based; conditions: Homo sapiens, HCT-116, 144 h, read-out: Prolif_HCT116-WT IC50
# How it was run: as §1
# [3] = target: T1, PRMT5/MEP50 (Homo sapiens, UniProt O14744); assay: MTase-Glo methyl transferase assay, Method A (Histone H4 peptide, 1 µM MTA, 24 h pre-incubation); type: biochemical; set-up: made in house; conditions: read-out: PRMT5 MTase Glo Ki (nM, Meth. A)
# How it was run: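 PRMT5/MEP50 (10 nM) pre-incubated 24 h with compound, 5 µM SAM and 1 µM MTA, then reaction started with 1 µM Histone H4 (1-21) peptide and run 2 h at room temperature in Tris pH 8.0 buffer. SAH formed detected by MTase-Glo luminescence; IC50 and KI from dose-response curves.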
# Target sequence in this assay (O14744 whole entry): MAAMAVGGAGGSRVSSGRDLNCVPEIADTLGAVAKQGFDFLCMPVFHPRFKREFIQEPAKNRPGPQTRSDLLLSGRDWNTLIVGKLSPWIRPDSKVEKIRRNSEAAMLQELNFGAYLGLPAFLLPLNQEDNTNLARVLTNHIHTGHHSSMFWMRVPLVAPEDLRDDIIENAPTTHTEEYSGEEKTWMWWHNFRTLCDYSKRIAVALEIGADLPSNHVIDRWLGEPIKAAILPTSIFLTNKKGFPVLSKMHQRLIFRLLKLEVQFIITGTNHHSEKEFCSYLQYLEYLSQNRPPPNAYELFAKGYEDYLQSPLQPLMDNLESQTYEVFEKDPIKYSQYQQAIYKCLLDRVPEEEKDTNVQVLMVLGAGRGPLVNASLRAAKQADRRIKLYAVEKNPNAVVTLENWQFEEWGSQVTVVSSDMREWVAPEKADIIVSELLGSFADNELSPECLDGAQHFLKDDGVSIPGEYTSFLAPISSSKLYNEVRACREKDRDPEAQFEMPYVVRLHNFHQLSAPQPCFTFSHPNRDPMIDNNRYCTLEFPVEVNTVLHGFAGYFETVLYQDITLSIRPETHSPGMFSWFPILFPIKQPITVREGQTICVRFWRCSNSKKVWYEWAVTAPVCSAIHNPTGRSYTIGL
# Target sequence in this assay (Q9BQA1 whole entry partner): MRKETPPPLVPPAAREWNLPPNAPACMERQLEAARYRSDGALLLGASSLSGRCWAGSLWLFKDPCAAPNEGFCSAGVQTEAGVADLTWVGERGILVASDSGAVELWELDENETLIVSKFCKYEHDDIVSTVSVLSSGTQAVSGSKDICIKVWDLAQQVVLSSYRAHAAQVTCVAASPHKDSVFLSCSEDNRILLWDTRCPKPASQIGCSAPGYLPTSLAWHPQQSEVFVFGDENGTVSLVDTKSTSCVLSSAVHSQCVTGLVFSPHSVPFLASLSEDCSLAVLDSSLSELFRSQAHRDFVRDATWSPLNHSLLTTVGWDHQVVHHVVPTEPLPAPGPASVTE
# [4] = target: T1, PRMT5/MEP50; assay: MTase-Glo methyl transferase assay, Method B (FL-Histone H2A, 1 µM MTA, 1 h pre-incubation); type: biochemical; set-up: purchased Reaction Biology Corp RD-11-292; conditions: read-out: PRMT5 MTase Glo Ki (nM, Meth. B)
# Experimental: Method B: The PRMT5 inhibitory activity of test compounds was determined using the MTase-Glo™ assay (Promega), which monitors the product (S-adenosyl homocysteine or SAH) of methyltransferase reactions. The PRMT5 MTase-Glo assay was conducted in a 384-well white ProxiPlate (PerkinElmer) in a total volume of 16 µL. The PRMT5 enzymatic reaction (in 8 µL) contained 4 nM PRMT5/MEP50 (Reaction Biology Corp, catalog no.: RD-11-292), 5 µM S-adenosyl methionine (SAM, Promega), 2.5 µM FL-Histone H2A (BPS Bioscience, catalog no.: 52021), 1 µM 5′-methylthioadenosine (MTA, Sigma) and ½ log serially diluted compounds in a reaction buffer of 50 mM Tris (pH 8.0), 50 mM NaCl, 0.01% Tween 20, 0.01% BSA, and 1 mM TCEP. Test compounds were pre-incubated with PRMT5/MEP50, SAM, and MTA for 1 hour before addition of FL-Histone H2A to initiate the PRMT5 reaction. The reaction was allowed to proceed for 20 hours at room temperature and was then terminated by addition of 1 µL of 9X MTase-Glo™ Reagent (Promega). After a 30-minute incubation at room temperature, 8 µL of MTase-Glo™ Detection Solution (Promega) was added and the plate was incubated at room temperature for an additional 30 minutes. The light signal corresponding to the amount of SAH produced by the PRMT5 reaction was subsequently measured using an Envision multimode reader (PerkinElmer). IC50 and KI values were obtained by analyzing dose-response curves using GraphPad Prism®.
# Target sequence in this assay (O14744 2-637 limits assumed): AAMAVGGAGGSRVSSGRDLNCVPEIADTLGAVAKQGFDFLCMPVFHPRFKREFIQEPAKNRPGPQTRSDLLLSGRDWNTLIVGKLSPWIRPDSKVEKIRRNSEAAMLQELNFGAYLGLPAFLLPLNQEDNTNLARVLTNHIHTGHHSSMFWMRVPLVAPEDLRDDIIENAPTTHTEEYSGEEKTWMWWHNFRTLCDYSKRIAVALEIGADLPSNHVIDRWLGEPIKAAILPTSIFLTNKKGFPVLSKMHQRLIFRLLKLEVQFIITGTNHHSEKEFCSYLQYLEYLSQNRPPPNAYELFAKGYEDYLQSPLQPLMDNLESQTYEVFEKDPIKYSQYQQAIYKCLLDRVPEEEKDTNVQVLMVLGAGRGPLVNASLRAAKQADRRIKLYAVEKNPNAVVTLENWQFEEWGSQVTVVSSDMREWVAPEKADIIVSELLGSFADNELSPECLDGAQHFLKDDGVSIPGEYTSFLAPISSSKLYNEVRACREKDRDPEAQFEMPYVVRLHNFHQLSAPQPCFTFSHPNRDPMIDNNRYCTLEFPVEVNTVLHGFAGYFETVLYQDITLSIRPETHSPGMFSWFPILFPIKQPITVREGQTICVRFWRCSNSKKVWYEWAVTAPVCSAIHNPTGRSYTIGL
# Target sequence in this assay (Q9BQA1 2-342 partner limits assumed): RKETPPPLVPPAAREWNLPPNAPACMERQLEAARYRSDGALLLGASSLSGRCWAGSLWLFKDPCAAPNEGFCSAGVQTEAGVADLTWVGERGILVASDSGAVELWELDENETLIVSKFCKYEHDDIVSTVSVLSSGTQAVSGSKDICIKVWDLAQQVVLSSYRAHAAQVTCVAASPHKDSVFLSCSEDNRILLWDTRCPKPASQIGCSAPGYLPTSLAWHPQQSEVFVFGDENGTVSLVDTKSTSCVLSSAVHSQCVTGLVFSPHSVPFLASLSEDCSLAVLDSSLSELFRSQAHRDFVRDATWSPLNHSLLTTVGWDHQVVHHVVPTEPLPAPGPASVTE
"IC50 ([1]; HCT116-MTAP null, 144 h)",Ki [4],Structure (SMILES),other results
623 nM,–,"Cc1cc2cc(C(=O)N(Cc3ccc(C(=O)N(C)C)cn3)Cc3ncccc3F)ccc2nc1N [Example 560, 2-amino-N-((5-(dimethylcarbamoyl)-2-pyridinyl)methyl)-N-((3-fluoro-2-pyridinyl)methyl)-3-methyl-6-quinolinecarboxamide]",IC50 [2]: > 10000 nM; Ki [3]: 0.2 nM
895 nM,–,"Cc1cc2cc(C(=O)N(Cc3ccc(C(=O)N(C)C)cn3)[C@H](C)c3ncccc3F)ccc2nc1N [Example 561, 2-amino-N-((5-(dimethylcarbamoyl)-2-pyridinyl)methyl)-N-((1R)-1-(3-fluoro-2-pyridinyl)ethyl)-3-methyl-6-quinolinecarboxamide]",IC50 [2]: > 10000 nM; Ki [3]: 0.3 nM
180 nM,1.99 nM,"Cc1cc2cc(C(=O)N(Cc3ccc(C(F)(F)F)cn3)C(C)c3ccc4c(c3)NC(=O)CO4)ccc2nc1N (centres unmarked) [Example 625, 2-amino-3-methyl-N-(1-(3-oxo-3,4-dihydro-2H-benzo[b][1,4]oxazin-6-yl)ethyl)-N-((5-(trifluoromethyl)pyridin-2-yl)methyl)quinoline-6-carboxamide]",–
–,42.7 nM,"Cc1cc2cc(C(=O)N(Cc3cncnc3)Cc3ccc(C(F)(F)F)cn3)ccc2nc1N [Example 626, 2-amino-3-methyl-N-(pyrimidin-5-ylmethyl)-N-((5-(trifluoromethyl)pyridin-2-yl)methyl)quinoline-6-carboxamide]",–
360 nM,2.8 nM,"Cc1cc2cc(C(=O)N(Cc3ccc(C(F)(F)F)cn3)Cc3ccc[nH]c3=O)ccc2nc1N [Example 627, 2-amino-3-methyl-N-((2-oxo-1,2-dihydropyridin-3-yl)methyl)-N-((5-(trifluoromethyl)pyridin-2-yl)methyl)quinoline-6-carboxamide]",–
770 nM,5.93 nM,"Cc1cc2cc(C(=O)N(CCC3CCC3)Cc3ccc(C(F)(F)F)cn3)ccc2nc1N [Example 629, 2-amino-N-(2-cyclobutylethyl)-3-methyl-N-((5-(trifluoromethyl)pyridin-2-yl)methyl)quinoline-6-carboxamide]",–
33 nM,4.58 nM,"COc1cccc2c1OCCC2N(Cc1ccc(C(F)(F)F)cn1)C(=O)c1ccc2nc(N)c(C)cc2c1 (centres unmarked) [Example 630, 2-amino-N-(8-methoxychroman-4-yl)-3-methyl-N-[[5-(trifluoromethyl)-2-pyridyl]methyl] quinoline-6-carboxamide]",–
28 nM,7.14 nM,"Cc1cc2cc(C(=O)N(Cc3ccc(C(F)(F)F)cn3)C3CCCc4c[nH]nc43)ccc2nc1N (centres unmarked) [Example 631, 2-amino-3-methyl-N-(4,5,6,7-tetrahydro-2H-indazol-7-yl)-N-[[5-(trifluoromethyl)-2-pyridyl]methyl] quinoline-6-carboxamide]",–
340 nM,5.3 nM,"Cc1cc2cc(C(=O)N(Cc3ccc(C(F)(F)F)cn3)C(C)C3CCCO3)ccc2nc1N (centres unmarked) [Example 632, 2-amino-3-methyl-N-(1-tetrahydrofuran-2-ylethyl)-N-[[5-(trifluoromethyl)-2-pyridyl]methyl] quinoline-6-carboxamide]",–
330 nM,4.8 nM,"Cc1cc2cc(C(=O)N(Cc3ccc(C(F)(F)F)cn3)C3CCCC4OCCC43)ccc2nc1N (centres unmarked) [Example 633, N-(2,3,3a,4,5,6,7,7a-octahydrobenzofuran-4-yl)-2-amino-3-methyl-N-[[5-(trifluoromethyl)-2-pyridyl]methyl] quinoline-6-carboxamide]",–
930 nM,6.84 nM,"Cc1cc2cc(C(=O)N(Cc3ccc(C(F)(F)F)cn3)C(C)CC(C)C)ccc2nc1N (centres unmarked) [Example 634, 2-amino-N-(1,3-dimethylbutyl)-3-methyl-N-[[5-(trifluoromethyl)-2-pyridyl]methyl] quinoline-6-carboxamide]",–
–,1.29 nM,"Cc1cc2cc(C(=O)N(Cc3ccc(C(F)(F)F)cn3)Cc3ccnc4[nH]ccc34)cnc2nc1N [Example 635, 7-amino-6-methyl-N-(1H-pyrrolo[2,3-b]pyridin-4-ylmethyl)-N-[[5-(trifluoromethyl)-2-pyridyl]methyl]-1,8-naphthyridine-3-carboxamide]",IC50 [1]: 18 nM
890 nM,2.3 nM,"Cc1cc2cc(C(=O)N(Cc3ccc4c(c3)CNC4=O)Cc3ccc(C(F)(F)F)cn3)ccc2nc1N [Example 636, 2-amino-3-methyl-N-[(1-oxoisoindolin-5-yl)methyl]-N-[[5-(trifluoromethyl)-2-pyridyl]methyl] quinoline-6-carboxamide]",–
> 1000 nM,5.2 nM,"Cc1cc2cc(C(=O)N(Cc3ccc(C(N)=O)nc3)Cc3ccc(C(F)(F)F)cn3)ccc2nc1N [Example 637, 2-amino-N-[(6-carbamoyl-3-pyridyl)methyl]-3-methyl-N-[[5-(trifluoromethyl)-2-pyridyl]methyl] quinoline-6-carboxamide]",–
200 nM,1.9 nM,"CNC(=O)c1ccc(CN(Cc2ccc(C(F)(F)F)cn2)C(=O)c2ccc3nc(N)c(C)cc3c2)cc1 [Example 638, 2-amino-3-methyl-N-[[4-(methylcarbamoyl)phenyl]methyl]-N-[[5-(trifluoromethyl)-2-pyridyl]methyl] quinoline-6-carboxamide]",–
–,39.6 nM,"Cc1cc2cc(C(=O)N(Cc3ccc(N4CCCC4)cc3)CC(C)C)ccc2nc1N [Example 643, 2-amino-N-isobutyl-3-methyl-N-[(4-pyrrolidin-1-ylphenyl)methyl]quinoline-6-carboxamide]",–
–,29.3 nM,"Cc1cc2cc(C(=O)N(Cc3cccc(-n4cncn4)c3)CC(C)C)ccc2nc1N [Example 644, 2-amino-N-isobutyl-3-methyl-N-[[3-(1,2,4-triazol-1-yl)phenyl]methyl] quinoline-6-carboxamide]",–
–,12.6 nM,"Cc1cc2cc(C(=O)N(CC#CCO)Cc3ccc(C(F)(F)F)cn3)ccc2nc1N [Example 658, 2-amino-N-(4-hydroxybut-2-ynyl)-3-methyl-N-[[5-(trifluoromethyl)-2-pyridyl]methyl] quinoline-6-carboxamide]",–
–,36.8 nM,"Cc1cc2cc(C(=O)N(Cc3ccc(C(F)(F)F)cn3)C(C)C(C)n3cccn3)ccc2nc1N (centres unmarked) [Example 679, 2-amino-3-methyl-N-(1-methyl-2-pyrazol-1-yl-propyl)-N-[[5-(trifluoromethyl)-2-pyridyl]methyl] quinoline-6-carboxamide]",–
–,23 nM,"Cc1cc2cc(C(=O)N(Cc3ccc(C(F)(F)F)cn3)C(CC(N)=O)C3CCOCC3)ccc2nc1N (centres unmarked) [Example 682, 2-amino-N-(3-amino-3-oxo-1-tetrahydropyran-4-yl-propyl)-3-methyl-N-[[5-(trifluoromethyl)-2-pyridyl]methyl] quinoline-6-carboxamide]",–
–,36.5 nM,"Cc1cc2cc(C(=O)N(Cc3ccc(C(F)(F)F)cn3)C3CC(C#N)C3)ccc2nc1N (centres unmarked) [Example 697, 2-amino-N-(3-cyanocyclobutyl)-3-methyl-N-[[5-(trifluoromethyl)-2-pyridyl]methyl] quinoline-6-carboxamide]",–
–,36.4 nM,"Cc1cc2cc(C(=O)N(Cc3ccc(C(F)(F)F)cn3)C3CC4(C3)CC(F)(F)C4)ccc2nc1N [Example 698, 2-amino-N-(2,2-difluorospiro [3.3]heptan-6-yl)-3-methyl-N-[[5-(trifluoromethyl)-2-pyridyl]methyl] quinoline-6-carboxamide]",–
–,38.1 nM,"Cc1cc2cc(C(=O)N(Cc3ccc(C(F)(F)F)cn3)C3CCCC3C#N)cnc2nc1N (centres unmarked) [Example 700, 7-amino-N-(2-cyanocyclopentyl)-6-methyl-N-[[5-(trifluoromethyl)-2-pyridyl]methyl]-1,8-naphthyridine-3-carboxamide]",–
–,37.2 nM,"Cc1cc2cc(C(=O)N(Cc3ccc(C(F)(F)F)cn3)C3CCCC3C#N)ncc2nc1N (centres unmarked) [Example 701, 2-amino-N-(2-cyanocyclopentyl)-3-methyl-N-[[5-(trifluoromethyl)-2-pyridyl]methyl]-1,7-naphthyridine-6-carboxamide]",–
–,31 nM,"Cc1cc2cc(C(=O)N(Cc3ccc(C(F)(F)F)cn3)C3CC3(C)C)ccc2nc1N (centres unmarked) [Example 706, 2-amino-N-(2,2-dimethylcyclopropyl)-3-methyl-N-[[5-(trifluoromethyl)-2-pyridyl]methyl] quinoline-6-carboxamide]",–
